In brackets after ≈: the same amount, converted by molar mass. Where two headings read alike, the source gives them in different places.
Experiments:
Staphylococcus aureus = test: In-vitro antibacterial test, agar dilution MIC; format: cell-based; details: for MIC: Staphylococcus aureus, read-out: In-vitro MIC
From the text: (§4) The test bacterial strains were the standard quality control test strains of Klebsiella pneumoniae strains (Strains No. CMCC 46114-8), Pseudomonas aeruginosa (Strains No. ATCC 27853), Escherichia coli (Strains No. ATCC25922), and Staphylococcus aureus cocci (Strains No. ATCC25925). Other bacteria included those isolated from sputum, throat swab or urine of patients with acute bacterial respiratory tract infection or urinary tract infection and identified by the hospitals.
(§5) HCl levofloxacin injection and NaCl ciprofloxacin lactate injection were diluted with sterilized distilled water to a concentration of 1920 μg/mL.

Enterococcus faecalis = test: In-vitro antibacterial test, agar dilution MIC; format: cell-based; details: read-out: In-vitro MIC
From the text: as §4, §5

Escherichia coli = test: In-vitro antibacterial test, agar dilution MIC; format: cell-based; details: for MIC: Escherichia coli, read-out: In-vitro MIC
From the text: as §4, §5

Enterobacter cloacae = test: In-vitro antibacterial test, agar dilution MIC; format: cell-based; details: read-out: In-vitro MIC
From the text: as §4, §5

Streptococcus pneumoniae = test: In-vitro antibacterial test, agar dilution MIC; format: cell-based; details: for MIC: Streptococcus pneumoniae, read-out: In-vitro MIC
Experimental: (§1) Test method: the agar dilution method was used for the minimum inhibitory concentration (MIC) determination. The antibacterial chemicals were mixed with given amounts of agar in various concentrations and the mixtures were made into solid plates. Each plate had the antibacterial concentration two times higher than the next plate. Bacteria species were then added to the surface of the plates, cultured, and observed for their growth.
(§2) Other bacteria included those isolated from sputum, throat swab or urine of patients with acute bacterial respiratory tract infection or urinary tract infection and identified by the hospitals.
(§3) (S)-6-fluoro-1-methyl-4-oxo-7-(1-piperazinyl)-1H,4H-[1,3]thiazeto[3,2-a]quino line-3-carboxylic acid lactate and other test samples, equivalent to 96 mg of ulifloxacin, were dissolved in sterilized distilled water to make up 50 mL of each solution.

[1] = Solubility test: maximum solubility in water; format: physicochemical; details: thermodynamic from solid
Experimental: Three lots of mesylates and three lots of lactates, respectively, were subjected to preliminary tests for maximum solubility in water. At ambient temperature (25° C.), 0.2 g of sample was dissolved in 1 mL of water. To the solution was added 0.1 g of the sample each time until the sample could no longer be dissolved. The amount of sample dissolved was the maximum solubility.

Vibrio cholerae = test: In-vitro antibacterial test, agar dilution MIC; format: cell-based; details: for MIC: Vibrio cholerae, read-out: In-vitro MIC; for In-vitro MIC: agar dilution
From the text: as §4, §5

Klebsiella pneumoniae = test: In-vitro antibacterial test, agar dilution MIC; format: cell-based; details: for MIC: Klebsiella pneumoniae
From the text: as §4, §5

Pseudomonas aeruginosa = test: In-vitro antibacterial test, agar dilution MIC; format: cell-based; details: for MIC: Pseudomonas aeruginosa, read-out: In-vitro MIC
From the text: as §4, §5

[2] = tested on: Klebsiella pneumoniae, Pseudomonas aeruginosa, Staphylococcus aureus, Escherichia coli, Enterococcus faecalis, Streptococcus pneumoniae, Enterobacter cloacae …; test: In-vitro antibacterial tests, summary over the tested bacteria; format: cell-based; details: for antibacterial activity (in words): against the eight tested bacteria; for antibacterial activities compared with compounds 7 and 8: against the above four bacteria, concentrations calculated as equivalents to NM394
Experimental: as §1, §2, §3

[3] = tested on: New Zealand rabbit ear vein and surrounding tissues; test: Vascular irritation tests; format: in vivo, New Zealand rabbits; details: vein injection once a day for 3 days, high and low doses
From the text: Sixteen New Zealand rabbits were divided into 4 groups: a control group and three treatment groups for compounds 4, 5, and 6, respectively; each group had 4 rabbits. The rabbits of the treatment groups were vein-injected on their left ears with high doses of the test samples and on their right ears with low doses of the test samples. The rabbits of the control group were rein-injected on their both left and right ears with sodium chloride solution. The injections continued for 3 days, once a day. Two rabbits from each group were anatomized after 24 hours of each injection.

[4] = maximum solubility in water, ambient temperature (25° C.), average of two tests, preliminary, read-out: Water Solubility
[5] = high dose group (60 mg/kg·bw), after 28 days, tissue microscopy

Experimental for SD rats: The dose without toxic reaction was thereby determined and the long term toxicity to SD rats was tested. One hundred forty SD rats were randomly divided into 7 groups depending on their body weight and sex; each group had 20 rats with 10 males and 10 females. […] The rats were administrated by intravenous injection, once a day for consecutive 4 weeks. The recovery was monitored for 2 weeks after treatment.
Drug preparation: the drugs were dissolved with a saline solution to the desired concentration before administration. Administration: intravenous injection. Delivery period: 28 days continuously. Observation and inspection: Observation and inspection projects, targets and time: including the general state of observation (7), hematologic (16), biochemical blood test (18), urine (10) and pathological examination.
General observation: the appearance of signs, behavior, glands, respiratory and stool, daily observation and timely recording, discovering dead or dying animals, timely anatomical examination, food intake, and body weight once weekly.
Blood tests: abdominal aortic blood for hematology testing, in the 16 testing indicators, leukocyte classification using whole blood smear, Wright stain staining; prothrombin time (PT) with a 0.109 mmol/L of citrate Citrus medica sodium (with blood volume ratio of 1:9) anticoagulant, 3000 r/min centrifugal 10 min, taking with BE Thromotimer plasma coagulation analyzer (Germany) determination; other indicators to EDTA anticoagulant, using SWELAB AC920EO automated hematology analyzer (Sweden).
Biochemical blood tests: blood sampling method same as above, blood serum obtained by 3000 r/min centrifugal 10 min. In the 21 indicators, the Na+, K+, Cl^− were determined using EasyLyte Plus Na/K/Cl analyzer (USA), the other indexes of blood were determined using a Hitachi 7020 automatic biochemical analyzer (Japan) determination.
Urine tests: 16 h urine collection, using [sequence] 100 urine analyzer.
Pathology: after anesthesia, the animal was killed by blood letting of the abdominal aorta. System anatomy and visual observation of changes in various organs were performed; and organ weights were determined. Tissue was fixed in 10% neutral formalin; plates were made by conventional paraffin producers, HE staining, and light microscopy.
Statistical analysis: In the different groups, the body weight, hematology, blood chemistry, urine measurements, organ weights, organ coefficient were calculated for the mean±standard deviation and t-test comparison between groups. Pathological abnormalities according to their incidence and severity were compared between groups.

Compound: CC(O)C(=O)O.CC1Sc2c(C(=O)O)c(=O)c3cc(F)c(N4CCNCC4)cc3n21 (racemic) [Ulifloxaci lactate (±), (±)-6-fluoro-1-methyl-4-oxo-7-(1-piperazinyl)-1H,4H-[1,3]thiazeto[3,2-a]quinoline-3-carboxylic acid lactate, reference compound]
- MIC (Staphylococcus aureus): 0.25 µg/mL
- MIC (Enterococcus faecalis; agar dilution): 2 µg/mL
- MIC (Escherichia coli): 0.125 µg/mL
- MIC (Enterobacter cloacae): 1.25 µg/mL
- MIC (Streptococcus pneumoniae): 0.1 µg/mL
- solubility [1, 4]: 106 mg/mL

Compound: CC1Sc2c(C(=O)O)c(=O)c3cc(F)c(N4CCNCC4)cc3n21.CS(=O)(=O)O (racemic) [Ulifloxaci mesylate (±), (±)-6-fluoro-1-methyl-4-oxo-7-(1-piperazinyl)-1H,4H-[1,3]thiazeto[3,2-a]quinoline-3-carboxylic acid mesylate, reference compound]
- MIC (Staphylococcus aureus; agar dilution): 0.5 µg/mL
- MIC (Enterococcus faecalis): 1.5 µg/mL
- MIC (Vibrio cholerae): 0.5 µg/mL
- MIC (Escherichia coli): 0.063 µg/mL
- MIC (Enterobacter cloacae; agar dilution): 1 µg/mL
- MIC (Klebsiella pneumoniae): 0.2 µg/mL
- MIC (Streptococcus pneumoniae): 0.088 µg/mL
- solubility ([1]; 25 °C, water): 340 mg/mL

Compound: O=C(O)c1cn(C2CC2)c2cc(N3CCNCC3)c(F)cc2c1=O [Ciprofloxacin, reference compound]
- MIC (Staphylococcus aureus; agar dilution): 0.5 to 1 µg/mL (≈ 1.51 to 3.02 µM)
- MIC (Escherichia coli; agar dilution): 0.0313 µg/mL (≈ 0.0945 µM)
- MIC (Pseudomonas aeruginosa; agar dilution): 0.5 µg/mL (≈ 1.51 µM)
- MIC (Klebsiella pneumoniae): 0.0313 to 0.0625 µg/mL (≈ 0.0945 to 0.189 µM)

Compound: C[C@@H]1Sc2c(C(=O)O)c(=O)c3cc(F)c(N4CCNCC4)cc3n21 [Compound 2, (S)-6-fluoro-1-methyl-4-oxo-7-(1-piperazinyl)-1H,4H-[1,3]thiazeto[3,2-a]quinoline-3-carboxylic acid]
- MIC (Staphylococcus aureus; agar dilution): 0.177 µg/mL (≈ 0.507 µM)
- MIC (Escherichia coli; agar dilution): 0.0125 µg/mL (≈ 0.0358 µM)
- antibacterial activity relative to R-ulifloxacin [2]: 3 to 10 times
- antibacterial activity relative to racemic ulifloxacin [2]: two or more times
- antibacterial activity (in words) [2]: relatively strong antibacterial activity
- MIC (Enterobacter cloacae; agar dilution): 0.5 µg/mL (≈ 1.43 µM)
- MIC (Pseudomonas aeruginosa; agar dilution): 0.177 µg/mL (≈ 0.507 µM)
- MIC (Streptococcus pneumoniae; agar dilution): 0.025 µg/mL (≈ 0.0716 µM)

Compound: C[C@H]1Sc2c(C(=O)O)c(=O)c3cc(F)c(N4CCNCC4)cc3n21 [Compound 3, (R)-6-fluoro-1-methyl-4-oxo-7-(1-piperazinyl)-1H,4H-[1,3]thiazeto[3,2-a]quinoline-3-carboxylic acid]
- MIC (Staphylococcus aureus; agar dilution): 2.83 µg/mL (≈ 8.09 µM)
- MIC (Escherichia coli; agar dilution): 0.225 µg/mL (≈ 0.644 µM)
- MIC (Enterobacter cloacae; agar dilution): 4 µg/mL (≈ 11.4 µM)
- MIC (Pseudomonas aeruginosa; agar dilution): 2 µg/mL (≈ 5.72 µM)
- MIC (Streptococcus pneumoniae; agar dilution): 0.25 µg/mL (≈ 0.716 µM)

Compound: CC(O)C(=O)O.C[C@@H]1Sc2c(C(=O)O)c(=O)c3cc(F)c(N4CCNCC4)cc3n21 [Compound 4, (S)-6-fluoro-1-methyl-4-oxo-7-(1-piperazinyl)-1H,4H-[1,3]thiazeto[3,2-a]quinoline-3-carboxylic acid lactate]
- MIC (Staphylococcus aureus): 0.125 µg/mL
- MIC (Enterococcus faecalis; agar dilution): 0.5 µg/mL
- MIC (Escherichia coli): 0.01 µg/mL
- antibacterial activities compared with compounds 7 and 8 [2]: slightly stronger
- antibacterial activity (in words) [2]: relatively strong antibacterial activity
- MIC (Enterobacter cloacae; agar dilution): 0.5 µg/mL
- NOAEL (no observed adverse effect level) (SD rats; SD rats, 28 days continuous intravenous administration, calculated based on NM394): 30 mg/kg·bw
- targeted organ of toxicity (SD rats; SD rats, intravenous): the kidney
- rats with crystals in renal tubules (SD rats; [5]): 3
- rats with kidney protein casts (SD rats; [5]): one
- rats with mild cortical tubular dilatation (SD rats; [5]): 3
- rats with mild interstitial inflammatory cell infiltration (SD rats; high dose group (60 mg/kg·bw), tissue microscopy): 1
- irritation to ear vein and surrounding tissues [3]: no irritation
- MIC (Pseudomonas aeruginosa): 0.25 µg/mL
- MIC (Streptococcus pneumoniae): 0.02 µg/mL
- solubility [1, 4]: 70 mg/mL

Compound: CS(=O)(=O)O.C[C@H]1Sc2c(C(=O)O)c(=O)c3cc(F)c(N4CCNCC4)cc3n21 [Compound 9, (R)-6-fluoro-1-methyl-4-oxo-7-(1-piperazinyl)-1H,4H-[1,3]thiazeto[3,2-a]quinoline-3-carboxylic acid mesylate]
- MIC (Staphylococcus aureus; agar dilution): 2 µg/mL
- MIC (Enterococcus faecalis): 4 µg/mL
- MIC (Vibrio cholerae): 2 µg/mL
- MIC (Enterobacter cloacae; agar dilution): 4 µg/mL
- MIC (Pseudomonas aeruginosa): 1 µg/mL
- MIC (Klebsiella pneumoniae): 0.5 µg/mL
- MIC (Streptococcus pneumoniae): 0.125 µg/mL
- solubility ([1]; 25 °C, water): 501 mg/mL

Compound: CC(O)C(=O)O.C[C@H]1Sc2c(C(=O)O)c(=O)c3cc(F)c(N4CCNCC4)cc3n21 [Compound 13, (R)-6-fluoro-1-methyl-4-oxo-7-(1-piperazinyl)-1H,4H-[1,3]thiazeto[3,2-a]quinoline-3-carboxylic acid lactate]
- MIC (Staphylococcus aureus): 1 µg/mL
- MIC (Enterococcus faecalis; agar dilution): 4 µg/mL
- MIC (Escherichia coli): 0.25 µg/mL
- MIC (Pseudomonas aeruginosa): 1 µg/mL
- MIC (Streptococcus pneumoniae): 0.125 µg/mL
- solubility [1, 4]: 116 mg/mL

Compound: C[C@H]1COc2c(N3CCN(C)CC3)c(F)cc3c(=O)c(C(=O)O)cn1c23 [Levofloxacin, reference compound]
- MIC (Staphylococcus aureus; agar dilution): 0.5 µg/mL (≈ 1.38 µM)
- MIC (Escherichia coli; agar dilution): 0.0313 µg/mL (≈ 0.0866 µM)
- MIC (Pseudomonas aeruginosa; agar dilution): 2 µg/mL (≈ 5.53 µM)
- MIC (Klebsiella pneumoniae): 0.0125 µg/mL (≈ 0.0346 µM)

Compound: (R)-6-fluoro-1-methyl-4-oxo-7-(1-piperazinyl)-1H,4H-[1,3]thiazeto[3,2-a]quinoline-3-carboxylic acid aspartate [Compound 11]
- In-vitro MIC (Staphylococcus aureus; agar dilution): 2 µg/mL
- In-vitro MIC (Escherichia coli; agar dilution): 0.25 µg/mL
- In-vitro MIC (Pseudomonas aeruginosa; agar dilution): 1 µg/mL

Compound: (R)-6-fluoro-1-methyl-4-oxo-7-(1-piperazinyl)-1H,4H-[1,3]thiazeto[3,2-a]quinoline-3-carboxylic acid gluconate [Compound 10]
- In-vitro MIC (Staphylococcus aureus; agar dilution): 1 µg/mL
- In-vitro MIC (Vibrio cholerae): 2 µg/mL
- In-vitro MIC (Escherichia coli; agar dilution): 0.25 µg/mL
- In-vitro MIC (Pseudomonas aeruginosa; agar dilution): 1 µg/mL
- In-vitro MIC (Klebsiella pneumoniae): 0.5 µg/mL

Compound: (R)-6-fluoro-1-methyl-4-oxo-7-(1-piperazinyl)-1H,4H-[1,3]thiazeto[3,2-a]quinoline-3-carboxylic acid glutamate [Compound 12]
- In-vitro MIC (Staphylococcus aureus; agar dilution): 2 µg/mL
- In-vitro MIC (Escherichia coli; agar dilution): 0.5 µg/mL
- In-vitro MIC (Streptococcus pneumoniae; agar dilution): 0.5 µg/mL

Compound: (S)-6-fluoro-1-methyl-4-oxo-7-(1-piperazinyl)-1H,4H-[1,3]thiazeto[3,2-a]quinoline-3-carboxylic acid aspartate [Compound 7]
- In-vitro MIC (Staphylococcus aureus; agar dilution): 0.25 µg/mL
- In-vitro MIC (Escherichia coli; agar dilution): 0.02 µg/mL
- antibacterial activity (in words) [2]: relatively strong antibacterial activity
- In-vitro MIC (Pseudomonas aeruginosa; agar dilution): 0.25 µg/mL

Compound: (S)-6-fluoro-1-methyl-4-oxo-7-(1-piperazinyl)-1H,4H-[1,3]thiazeto[3,2-a]quinoline-3-carboxylic acid gluconate [Compound 6]
- In-vitro MIC (Staphylococcus aureus; agar dilution): 0.25 µg/mL
- In-vitro MIC (Vibrio cholerae): 0.02 µg/mL
- In-vitro MIC (Escherichia coli; agar dilution): 0.01 µg/mL
- antibacterial activities compared with compounds 7 and 8 [2]: slightly stronger
- antibacterial activity (in words) [2]: relatively strong antibacterial activity
- irritation to ear vein and surrounding tissues [3]: no irritation
- In-vitro MIC (Pseudomonas aeruginosa; agar dilution): 0.25 µg/mL
- In-vitro MIC (Klebsiella pneumoniae): 0.02 µg/mL

Compound: (S)-6-fluoro-1-methyl-4-oxo-7-(1-piperazinyl)-1H,4H-[1,3]thiazeto[3,2-a]quinoline-3-carboxylic acid glutamate [Compound 8]
- In-vitro MIC (Staphylococcus aureus; agar dilution): 0.25 µg/mL
- In-vitro MIC (Escherichia coli; agar dilution): 0.01 µg/mL
- antibacterial activity (in words) [2]: relatively strong antibacterial activity
- In-vitro MIC (Streptococcus pneumoniae; agar dilution): 0.125 µg/mL

Compound: (±)-6-fluoro-1-methyl-4-oxo-7-(1-piperazinyl)-1H,4H-[1,3]thiazeto[3,2-a]quino line-3-carboxylic acid aspartate [Ulifloxaci aspartate (±), reference compound]
- In-vitro MIC (Staphylococcus aureus; agar dilution): 0.5 µg/mL
- In-vitro MIC (Escherichia coli; agar dilution): 0.1 µg/mL
- In-vitro MIC (Pseudomonas aeruginosa; agar dilution): 0.5 µg/mL

Compound: (±)-6-fluoro-1-methyl-4-oxo-7-(1-piperazinyl)-1H,4H-[1,3]thiazeto[3,2-a]quinoline-3-carboxylic acid gluconate [Ulifloxaci gluconate (±), reference compound]
- In-vitro MIC (Staphylococcus aureus; agar dilution): 0.5 µg/mL
- In-vitro MIC (Vibrio cholerae): 0.5 µg/mL
- In-vitro MIC (Escherichia coli; agar dilution): 0.05 µg/mL
- In-vitro MIC (Pseudomonas aeruginosa; agar dilution): 0.5 µg/mL
- In-vitro MIC (Klebsiella pneumoniae): 0.2 µg/mL

Compound: (±)-6-fluoro-1-methyl-4-oxo-7-(1-piperazinyl)-1H,4H-[1,3]thiazeto[3,2-a]quinoline-3-carboxylic acid glutamate [Ulifloxaci glutamate (±), reference compound]
- In-vitro MIC (Staphylococcus aureus; agar dilution): 0.5 µg/mL
- In-vitro MIC (Escherichia coli; agar dilution): 0.125 µg/mL
- In-vitro MIC (Streptococcus pneumoniae; agar dilution): 0.2 µg/mL

Source: patent US20110028444A1, “PHARMACEUTICALLY ACCEPTABLE SALTS OF ANTI-INFECTION QUINOLONE COMPOUNDS” (priority 2008, published 2011)
